The values below come from publication PMC7095870 (Nature Medicine, 2000).

pIC50: −log10 of the molar value. No end group written: not given here.

The subject of test [1] is RSV (A2 strain) in HEp-2 cells.
Test [2] relates to RSV F (HEp-2 cells expressing RSV F, G and SH). Type of test: cell-based, respiratory syncytial virus.
The next test has as its system RSV F protein. The conditions noted are these: ref [14], cited from earlier work.
For test [3], the system named is RSV F construct FN155 (F residues 155–550). The settings on record: yeast two-hybrid assay; FN155 construct encoding F residues 155–550; ref [14]; cited from earlier work.

For DRLRPLSYPDTDVILMCFS [RhoA67-85], in test [1] (peptide incubated 1 h on ice with RSV, 5 and 10 μg/ml, HEp-2 cells, 3 d), the RSV-induced syncytium formation result is on record as “did not block”. Consider DSPDSLENIPEKWTPEVKH [RhoA87-105], for which the “cell-to-cell fusion induced by RSV F” value in test [2] was “not inhibited”. Further, the plaque formation result in test [1] (pretreatment of virus inoculum, 1 h on ice, peptide 5 and 10 μg/ml, HEp-2 cells, 3 d, relative to media-treated controls) was “did not have any effect”. As for “RhoA amino acids 67–110: F binding domain of RhoA (amino acids 67–110)”, the “binding to RSV F amino acids 146–155” value in the test with RSV F protein (RhoA amino acids 67–110) is “bind”.

Regarding “RhoA: RhoA, a small GTPase of the Ras superfamily”, in the test on RSV F protein, the “binding to RSV F protein” value was “binds”. Moreover, the “binding to RSV F construct expressing the heptad repeat region” value in test [3] is “not bind”. With TDVILMCFSIDSPDSLENI [RhoA77-95], the pIC50 (usually the negative decadic logarithm of the IC50, by convention in mol/L) in test [1] (1 h) is 6.60.
